Assay results taken from ChEMBL document CHEMBL1759848, “[11C]sorafenib: radiosynthesis and preliminary PET study of brain uptake in P-gp/Bcrp knockout mice” (Bioorg Med Chem Lett, 2011).

What was measured:
Type in all cases: ADME, tissue-based
Brain [1] = experiment: Drug uptake in wild-type mouse brain by Positron emission tomography; details: in vivo
Brain [2] = experiment: Drug uptake in P-gp/Bcrp knockout mouse brain after 60 mins; details: in vivo, 1 h
Brain [3] = experiment: Drug uptake in P-gp/Bcrp knockout mouse brain by Positron emission tomography; details: in vivo
Brain [4] = experiment: Drug uptake in wild-type mouse brain after 60 mins; details: in vivo, 1 h

Drug uptake (Brain [1]): Active | SUV (Brain [2]): 6.72 | Drug uptake (Brain [3]): Active | SUV (Brain [4]): 18.83
SMILES: CNC(=O)c1cc(Oc2ccc(N[11C](=O)Nc3ccc(Cl)c(C(F)(F)F)c3)cc2)ccn1 [[11C]-SORAFENIB]
